Laboratory results taken from ChEMBL document CHEMBL4364318, “Targeting multiple myeloma with natural polyphenols” (Eur J Med Chem, 2019).

Legend:
RPMI-8226 = assay: Induction of apoptosis in human RPMI8226 cells at 10 to 20 uM by TUNEL assay relative to control; assay type: functional
U-266 = assay: Induction of nitric oxide production in human U266 cells; assay type: functional, cell-based

O=C(O[C@@H]1Cc2c(O)cc(O)cc2O[C@@H]1c1cc(O)c(O)c(O)c1)c1cc(O)c(O)c(O)c1 [EPIGALOCATECHIN GALLATE]
Activity (RPMI-8226): >100%
IC50 (U-266): 23.2 µM
